# Assay results published in patent publication US6861524B2, “Acyl and sulfonyl derivatives of 6,9-disubstituted 2-(trans-1,4-diaminocyclohexyl)-purines and their use as antiproliferative agents” (Aventis Pharmaceuticals Inc., priority 2000, dated 2005).
# “And” between values parts separate entries of the source, which are not always exact repeats. Equal values may be shown once. Marks after values point to notes of the source that are not given here.
# Experiments:
# [1] = Red blood cell binding (RBC to plasma ratio), human whole blood; format: in vitro ADME; conditions: 30 minutes at 37° C., nominal 500 ng/ml
# Description: (§1) Compounds, including one positive control, are assessed for red blood cell (RBC) uptake, using a modified procedure based on the protocol reported in Sun, J. X. S., et al. High-performance liquid chromatographic analysis, plasma protein binding and red blood cell partitioning of phenprobamate. Biopharmaceutics and Drug Disposition, 8 (1987) 341-351.
# (§2) Briefly, RBC uptake is evaluated by comparison of the levels in spiked plasma (n=3) and plasma isolated from spiked whole blood (n=3). Compounds are incubated with human and mouse whole blood, respectively, for 30 minutes at 37° C. using a nominal concentration of 500 ng/ml. Following centrifugation, the plasma is removed and submitted for analysis. Each compound is also spiked into blank plasma at a nominal concentration of 500 ng/ml, and submitted for analysis. Levels in the two plasma samples (Cp′ and Cp in the equation below) and the blood hematocrit are used to determine the red blood cell to plasma ratio (Crbc/Cp). [formula] In equation 1, Cp′ is the level of drug in the spiked “blank” plasma, Cp is the level of drug in the plasma of spiked whole blood, and H is the hematocrit. The hematocrit values are determined as 0.4 for human whole blood and 0.41 for mouse whole blood. The samples are analyzed with ESI LC/MS, using positive ion detection with an internal standard.
# (§3) The red blood cell to plasma ratio is determined for each compound using equation 1. Tables 6 and 7 summarize the respective mean Crbc/Cp values and standard deviations for mouse and human whole blood, respectively, in descending order based on the red blood cell to plasma ratio, where “*” denotes Positive Control, and “ND” denotes Not Determined. MDL 108552 is included as a positive control for red blood cell uptake.
# [2] = Plasma pharmacokinetics in mice after single intravenous cassette doses; conditions: for Mean concentration in plasma / Mean Conc. in plasma / concentration at 0.083 h / concentration at 0.25 h / concentration at 0.5 h / concentration at 1 h / concentration at 3 h / concentration at 6 h / concentration at 8 h: mice; for Mean concentration in plasma: single 18 mg/kg intravenous cassette dose (Cassette #1); for concentration at 0.083 h / concentration at 0.25 h / concentration at 0.5 h / concentration at 1 h / concentration at 3 h / concentration at 6 h / concentration at 8 h / AUC(0-inf) / Cmax / half-life: male, Hsd:ICR (CD-1), mouse, plasma, 3 mg/kg; for concentration at 0.083 h / concentration at 0.25 h / concentration at 0.5 h / concentration at 1 h / concentration at 3 h / concentration at 6 h / concentration at 8 h: intravenous, Mean Conc. in plasma; for AUC(0-inf) / Cmax / half-life: iv; for AUC(0-inf): AUC0-∞; for Cmax: Cmax (highest measured value); for half-life: t1/2, λz
# Description: Male mice are given single intravenous cassette doses of CDK inhibitor compounds.
# A single intravenous cassette dose (18 or 15 mg/kg free base) is administered. For each compound, this is equivalent to a dose of approx. 3 mg/kg free base. […] The dose is administered at a volume of 10 ml/kg (total volume of approximately 0.25 ml/animal).
# Male mice (Hsd:ICR (CD-1® SD®), Harlan), each weighing approximately 20-30 g at the start of the study. […] Water is available ad libitum throughout the study.
# A single cassette dose of 5-6 compounds is administered by bolus injection into the tail vein over a 10-15-second period. […] Whole blood (approximately 0.6 ml/sample) is obtained by cardiac puncture and transferred to 3 ml glass tubes containing 45 U sodium heparin.
# Sample Processing: Plasma: Whole blood is centrifuged at approximately 3,200 rpm for 10 min at approximately 5° C. and the plasma (approx. 0.3 ml/sample) is transferred to chilled plastic vials and stored at approx. −70° C. until bioanalysis.
# Sample Analysis: Concentrations of each test article in plasma are quantitated by a non-validated method based on LC/MS using the following protocol.
# Samples are removed from the freezer, allowed to thaw at room temperature, and vortexed to insure complete homogenization prior to sample manipulation. Samples are then prepared according to the following scheme: • 1. transfer 48 μL of plasma (blank mouse sample) into a 12×75 mm test tube. • 2. add 12 μL of working standard to the blank plasma for standard curve preparation. • 3. […] Inject 25 μL on LC/MS. Chromatographic Conditions:
# Data Analysis: Concentrations of Compounds in plasma of individual animals are determined by bioanalytics. […] Statistical analyses are limited to simple expressions of variation (mean and standard deviation). The plasma AUC (area-under-curve) is determined by the linear trapezoidal rule. […] All PK parameters are determined by noncompartmental methods using WinNonlin version 3.0 (Pharsight Corp).
# The following information is based on a graph of the semi-log of the plasma concentration in ng/ml versus collection time in hours. • “Cmax” represents the maximum plasma concentration. • “t1/2” represents the half-life of the compound. • “AUC0-∞” represents the calculated area under the curve. • “AUC % Extrap(obs.)” represents the extrapolated area under the curve. • “Cls” is the clearance rate.
# [3] = Red blood cell binding (RBC to plasma ratio), mouse whole blood; format: in vitro ADME; conditions: 30 minutes at 37° C., nominal 500 ng/ml
# Description: as §1, §2, §3
# [4] = 24 h, BLQ = below assay quantification limit (approx. 1 ng/ml)
# [5] = Cassette #3, single 15 mg/kg iv cassette dose (3 mg/kg/compound), 24 h
# [6] = Cassette #2, single 18 mg/kg iv cassette dose (3 mg/kg/compound), 24 h
# [7] = Cassette #2, single 18 mg/kg iv cassette dose (3 mg/kg/compound), 8 h
# [8] = mouse plasma, iv Cassette #2, 3 mg/kg/compound (18 mg/kg total dose)
# [9] = mouse plasma, iv Cassette #3, 3 mg/kg/compound (15 mg/kg total dose)
# [10] = mouse plasma, iv Cassette #4, 3 mg/kg/compound (15 mg/kg total dose)
structure (smiles),measurement,setting,value
"Cl.Cl.N#Cc1ccc(S(=O)(=O)N2CCC(Nc3nc(N[C@H]4CC[C@H](N)CC4)nc4c3ncn4C3CCCC3)CC2)cc1 [Compound 109, trans-N^2-(4-Amino-cyclohexyl)-9-cyclopentyl-N^6-[1-(4-cyano-benzenesulfonyl)-piperidin-4-yl]-9H-purine-2,6-diamine dihydrochloride]",Mean Red Blood Cell to Plasma Ratio,[1],5.0
same,Mean concentration in plasma,[2]; [4],BLQ
same,Mean Red Blood Cell to Plasma Ratio,[3]; hematocrit 0.41,2.4
"Cl.Cl.N[C@H]1CC[C@H](Nc2nc(NC3CCN(S(=O)(=O)c4cccc(C(F)(F)F)c4)CC3)c3ncn(C4CCCC4)c3n2)CC1 [Compound 112, trans-N^2-(4-Amino-cyclohexyl)-9-cyclopentyl-N^6-[1-(3-trifluoromethyl-benzenesulfonyl)-piperidin-4-yl]-9H-purine-2,6-diamine dihydrochloride]",Mean Red Blood Cell to Plasma Ratio,[1],3.7
same,Mean Conc. in plasma,[2]; [5],BLQ
same,Mean Red Blood Cell to Plasma Ratio,[3]; hematocrit 0.41,2.4
"Cl.Cl.N[C@H]1CC[C@H](Nc2nc(NC3CCN(C(=O)Oc4ccc(Br)cc4)CC3)c3ncn(C4CCCC4)c3n2)CC1 [Compound 81, trans-4-[2-(4-Amino-cyclohexylamino)-9-cyclopentyl-9H-purin-6-ylamino]-piperidine-1-carboxylic acid 4-bromo-phenyl ester dihydrochloride]",Mean Red Blood Cell to Plasma Ratio,[1],5.3
same,Mean Conc. in plasma,[2]; [6],BLQ
same,Mean Red Blood Cell to Plasma Ratio,"[3]; hematocrit 0.41, dihydrochloride",4.5 and 3.3
"NC1CCC(Nc2nc(NCCCc3ccccc3)c3ncn(C4CCCC4)c3n2)CC1 (centres unmarked) [MDL 107167, reference compound]",concentration at 0.083 h,"[2]; Cassette #2, single 18 mg/kg iv cassette dose (3 mg/kg/compound), 0.083 h",472 ng/mL
same,concentration at 0.25 h,"[2]; Cassette #2, single 18 mg/kg iv cassette dose (3 mg/kg/compound), 0.25 h",317 ng/mL
same,concentration at 0.5 h,"[2]; Cassette #2, single 18 mg/kg iv cassette dose (3 mg/kg/compound), 0.5 h",266 ng/mL
same,concentration at 1 h,"[2]; Cassette #2, single 18 mg/kg iv cassette dose (3 mg/kg/compound), 1 h",133 ng/mL
same,concentration at 3 h,"[2]; Cassette #2, single 18 mg/kg iv cassette dose (3 mg/kg/compound), 3 h",16.1 ± 1.4 ng/mL
same,concentration at 6 h,"[2]; Cassette #2, single 18 mg/kg iv cassette dose (3 mg/kg/compound), 6 h",2.8 ± 0.4 ng/mL
same,concentration at 8 h,[2]; [7],1.6 ± 0.2 ng/mL
same,concentration at 0.083 h,"[2]; Cassette #3, single 15 mg/kg iv cassette dose (3 mg/kg/compound), 0.083 h",520 ± 69.3 ng/mL
same,concentration at 0.25 h,"[2]; Cassette #3, single 15 mg/kg iv cassette dose (3 mg/kg/compound), 0.25 h",324 ± 32.3 ng/mL
same,concentration at 0.5 h,"[2]; Cassette #3, single 15 mg/kg iv cassette dose (3 mg/kg/compound), 0.5 h",209 ± 24.1 ng/mL
same,concentration at 1 h,"[2]; Cassette #3, single 15 mg/kg iv cassette dose (3 mg/kg/compound), 1 h",108 ± 29.3 ng/mL
same,concentration at 3 h,"[2]; Cassette #3, single 15 mg/kg iv cassette dose (3 mg/kg/compound), 3 h",23.5 ± 6.4 ng/mL
same,concentration at 6 h,"[2]; Cassette #3, single 15 mg/kg iv cassette dose (3 mg/kg/compound), 6 h",5 ± 0.5 ng/mL
same,concentration at 8 h,"[2]; Cassette #3, single 15 mg/kg iv cassette dose (3 mg/kg/compound), 8 h",2.4 ± 1.7 ng/mL
same,concentration at 0.083 h,"[2]; Cassette #4, single 15 mg/kg iv cassette dose (3 mg/kg/compound), 0.083 h",567 ± 43.5 ng/mL
same,concentration at 0.25 h,"[2]; Cassette #4, single 15 mg/kg iv cassette dose (3 mg/kg/compound), 0.25 h",491 ± 32.3 ng/mL
same,concentration at 0.5 h,"[2]; Cassette #4, single 15 mg/kg iv cassette dose (3 mg/kg/compound), 0.5 h",325 ± 13.6 ng/mL
same,concentration at 1 h,"[2]; Cassette #4, single 15 mg/kg iv cassette dose (3 mg/kg/compound), 1 h",145 ± 9.5 ng/mL
same,concentration at 3 h,"[2]; Cassette #4, single 15 mg/kg iv cassette dose (3 mg/kg/compound), 3 h",35.3 ± 8.3 ng/mL
same,concentration at 6 h,"[2]; Cassette #4, single 15 mg/kg iv cassette dose (3 mg/kg/compound), 6 h",10.1 ± 3 ng/mL
same,concentration at 8 h,"[2]; Cassette #4, single 15 mg/kg iv cassette dose (3 mg/kg/compound), 8 h",3.7 ± 0.7 ng/mL
same,AUC(0-inf),[2]; [8],467 ng·h/mL
same,AUC(0-inf),[2]; [9],452 ng·h/mL
same,AUC(0-inf),[2]; [10],627 ng·h/mL
same,Cmax,[2]; [8],472 ng/mL
same,Cmax,[2]; [9],520 ng/mL
same,Cmax,[2]; [10],567 ng/mL
same,half-life,[2]; [8],1.5 h
same,half-life,[2]; [9],1.5 h
same,half-life,[2]; [10],1.5 h
same,Mean Conc. in plasma,[2]; [6],BLQ
same,Mean Conc. in plasma,[2]; [5],BLQ
same,Mean Conc. in plasma,"[2]; Cassette #4, single 15 mg/kg iv cassette dose (3 mg/kg/compound), 24 h",BLQ
same,Mean concentration in plasma,[2]; [4],BLQ
same,AUC0-∞,"[2]; mouse plasma, iv Cassette #1, 3 mg/kg/compound (18 mg/kg total dose)",532 ng·h/mL
"CCOC(=O)c1ccc(NC(=O)N2CCC(Nc3nc(N[C@H]4CC[C@H](N)CC4)nc4c3ncn4C3CCCC3)CC2)cc1.Cl.Cl [Compound 154, trans-4-[(1-{4-[2-(4-Amino-cyclohexylamino)-9-cyclopentyl-9H-purin-6-ylamino]-piperidine-1-yl}-methanoyl)-amino]-benzoic acid ethyl ester dihydrochloride]",Mean Red Blood Cell to Plasma Ratio,[1],4.1
same,Mean Conc. in plasma,[2]; [7],BLQ^a
same,Mean Conc. in plasma,[2]; [6],BLQ^a
"COC(=O)c1ccc(OC(=O)N2CCC(Nc3nc(N[C@H]4CC[C@H](N)CC4)nc4c3ncn4C3CCCC3)CC2)cc1.Cl.Cl [Compound 83, trans-4-[2-(4-Amino-cyclohexylamino)-9-cyclopentyl-9H-purin-6-ylamino]-piperidine-1-carboxylic acid 4-methoxycarbonyl-phenyl ester dihydrochloride]",Mean Red Blood Cell to Plasma Ratio,[1],4.1
same,Mean concentration in plasma,[2]; 0.083 h,1515.7 ± 611.8 ng/mL
same,Mean concentration in plasma,[2]; 0.25 h,217.9 ± 92.8 ng/mL
same,Mean concentration in plasma,[2]; 0.5 h,61.3 ± 32.9 ng/mL
same,Mean concentration in plasma,[2]; 1 h,14.1^a ng/ml
same,Mean concentration in plasma,[2]; 3 h,4.1^a ng/ml
same,Mean concentration in plasma,[2]; 6 h,1.6^a ng/ml
same,Mean concentration in plasma,[2]; 8 h,6.3^a ng/ml
same,Mean concentration in plasma,[2]; [4],BLQ
